We go through 21 molecules from patent US20250115591A1, “NOVEL SULFONAMIDE CARBOXAMIDE COMPOUNDS” (INFLAZOME LIMITED, priority 2017, published 2025).

Each structure is given as a SMILES string. Counter-ions that a name gives are not always drawn. Like-named read-outs stand apart in the source and are kept apart here. A value given as a limit tells only on which side of the number the result lay.

The nature of data set [1]: PK, intravenous administration. The class given is in vivo, male Sprague Dawley rats. Particulars: male, Sprague Dawley, rat. On the procedure: Pharmacokinetic parameters were determined in male Sprague Dawley rats (Charles River, UK, 250-300 g; or Vital River Laboratory Animal Technology Co Ltd, Beijing, China, 7-9 weeks old). Animals were individually housed during the study and maintained under a 12 h light/dark cycle. Animals had free access to food and water except that orally dosed animals were food deprived overnight prior to the study. For intravenous administration, compounds were formulated as a solution in water or DMSO:PBS [10:90] in 2 mL/kg dosing volume and administered via tail vein. For oral administration, compounds were formulated as a solution in water or DMSO:water [10:90] in 5 mL/kg dosing volume and administered orally. Serial blood samples (about 120-300 μL) were taken from each animal at each of 8 time-points post dose (0.083, 0.25, 0.5, 1, 2, 4, 8 and 24 h). Samples were held on ice for no longer than 30 minutes before centrifugation (10,000 rpm (8,385 g) for 3 minutes; or 5,696 rpm (3,000 g) for 15 minutes) for plasma generation. Plasma was frozen on dry ice prior to bioanalysis. PK parameters were generated from LC-MS/MS data using Dotmatics or Phoenix WinNonlin 6.3 software.

Data set [2] has as its target T1, NLRP3 (Homo sapiens (Human), UniProt Q96P20). The data set can be described thus: Human whole blood IL1β release assay (LPS + nigericin). The class given is cell-based. Particulars: human whole blood, 1 μg/ml LPS, nigericin, IL-1β release; read-out: HWB IC50. On the procedure:
For systemic delivery, the ability to inhibit NLRP3 when the compounds are present within the bloodstream is of great importance. For this reason, the NLRP3 inhibitory activity of a number of compounds in human whole blood was investigated in accordance with the following protocol.
Human whole blood in Li-heparin tubes was obtained from healthy donors from a volunteer donor panel. • 1. Plate out 80 μl of whole blood containing 1 μg/ml of LPS in 96-well, clear bottom cell culture plate (Corning #3585) • 2. Add 10 μl compound (8 points half-log dilution with 10 μM top dose) or vehicle (DMSO 0.1% FAC) to the appropriate wells • 3. Incubate for 3 hrs at 37° C., 5% CO2 • 4. Add 10 μl nigericin (Sigma #N7143) ([…]) to all wells • 5. Incubate for 1 hr at 37° C., 5% CO2 • 6. At the end of the incubation period, spin plates at 30×g for 5 mins to pellet cells and remove 20 μl of supernatant and add to 96-well v-bottom plates for IL-1β analysis (note: these plates containing the supernatants can be stored at −80° C. to be analysed at a later date) • 7. IL-1β was measured according to the manufacturer protocol (Perkin Elmer-AlphaLisa IL-Kit A[220F-5000) • 8. IC50 data is fitted to a non-linear regression equation (log inhibitor vs response-variable slope 4-parameters)

For data set [3], the target named is T1, NLRP3. The data set can be described thus: THP-1 cells pyroptosis assay (LPS + nigericin, resazurin read-out). It counts as cell-based. The note with it: 1 μg/ml LPS, 5 μM nigericin. The gist of the method: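 LPS-primed (1 μg/ml) human THP-1 cells in serum-free RPMI were exposed to compound (8-point half-log series, top dose as printed "10M") for 3 h at 37 °C, then to nigericin 5 μM for 1 h. Remaining viability was read by resazurin (100 μM, 1-2 h) fluorescence, and IC50 came from 4-parameter variable-slope regression.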
For orientation: Alamar Blue is a resazurin reagent that responds to reducing activity.

Where [4] appears, read: plasma, intravenous, dose 1 mg/kg, read-out: AUC.
[5] abbreviates: plasma, intravenous, dose 1 mg/kg, read-out: Cl.
Setting [6] is: plasma, intravenous, dose 1 mg/kg, read-out: T1/2 (converted).
Setting [7] is: plasma, intravenous, dose 1 mg/kg, read-out: Vdss.

T1 sequence (Q96P20 whole entry): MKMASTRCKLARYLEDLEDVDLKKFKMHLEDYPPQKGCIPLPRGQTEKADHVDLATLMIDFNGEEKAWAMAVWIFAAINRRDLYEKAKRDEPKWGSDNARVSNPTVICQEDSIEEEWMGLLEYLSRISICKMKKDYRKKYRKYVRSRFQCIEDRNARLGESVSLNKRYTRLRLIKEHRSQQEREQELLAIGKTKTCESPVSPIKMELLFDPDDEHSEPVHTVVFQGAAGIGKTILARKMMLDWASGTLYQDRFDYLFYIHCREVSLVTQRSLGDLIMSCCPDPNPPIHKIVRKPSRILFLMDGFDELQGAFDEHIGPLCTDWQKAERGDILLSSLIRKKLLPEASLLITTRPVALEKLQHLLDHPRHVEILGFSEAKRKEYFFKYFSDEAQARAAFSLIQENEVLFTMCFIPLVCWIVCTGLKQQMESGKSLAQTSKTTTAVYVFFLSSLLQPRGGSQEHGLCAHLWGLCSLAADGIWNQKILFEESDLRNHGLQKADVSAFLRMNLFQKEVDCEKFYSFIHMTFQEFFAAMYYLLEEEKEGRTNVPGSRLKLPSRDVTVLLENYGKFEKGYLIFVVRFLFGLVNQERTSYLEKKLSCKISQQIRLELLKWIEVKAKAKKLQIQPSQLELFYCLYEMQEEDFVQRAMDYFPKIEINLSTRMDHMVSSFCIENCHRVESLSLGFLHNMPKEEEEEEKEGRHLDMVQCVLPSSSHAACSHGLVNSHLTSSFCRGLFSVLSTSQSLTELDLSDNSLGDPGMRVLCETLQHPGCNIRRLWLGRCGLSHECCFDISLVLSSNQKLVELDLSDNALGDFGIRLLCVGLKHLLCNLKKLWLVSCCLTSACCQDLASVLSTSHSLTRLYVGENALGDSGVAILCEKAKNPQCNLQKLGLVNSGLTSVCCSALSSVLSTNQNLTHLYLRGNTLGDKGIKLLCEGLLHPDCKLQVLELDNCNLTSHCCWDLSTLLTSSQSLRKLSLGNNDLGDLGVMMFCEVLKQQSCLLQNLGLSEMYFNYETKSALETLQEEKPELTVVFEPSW

As for `O=C(Nc1c2c(cc3c1CCC3)CCC2)NS(=O)(=O)C1CN(C2CCC2)C1` [Example 18, 1-Cyclobutyl-N-((1,2,3,5,6,7-hexahydro-s-indacen-4-yl)carbamoyl)azetidine-3-sulfonamide, potassium salt], in data set [1] (setting [4]), the AUC turned out to be 1530 ng·h/mL. In addition, the clearance in data set [1] (setting [5]) amounted to 10.9 mL/min/kg. Besides, the half-life in data set [1] (setting [6]) is 0.9 h. For the same molecule, the Vd in data set [1] (setting [7]) was determined as 0.42 L/kg.
Take `CCN1CCC(S(=O)(=O)NC(=O)Nc2c3c(cc4c2CCC4)CCC3)C1` (stereo not drawn) [Example 37, 1-Ethyl-N-((1,2,3,5,6,7-hexahydro-s-indacen-4-yl)carbamoyl) pyrrolidine-3-sulfonamide, potassium salt]: the AUC in data set [1] (plasma, intravenous, dose 1.46 mg/kg, read-out: AUC) stood at 2250 ng·h/mL. Moreover, in data set [1] (plasma, intravenous, dose 1.46 mg/kg, read-out: Cl), the clearance came out at 10.8 mL/min/kg. Also, the half-life in data set [1] (plasma, intravenous, dose 1.46 mg/kg, read-out: T1/2 (converted)) was 2.1 h. The Vd in data set [1] (plasma, intravenous, dose 1.46 mg/kg, read-out: Vdss) stood at 0.59 L/kg.
For `CC(C)N1[C@@H]2CC[C@H]1C[C@@H](S(=O)(=O)NC(=O)Nc1c3c(cc4c1CCC4)CCC3)C2` [Example 45, (1R*,3R*,5S*)—N-((1,2,3,5,6,7-Hexahydro-s-indacen-4-yl)carbamoyl)-8-isopropyl-8-azabicyclo[3.2.i]octane-3-sulfonamide, potassium salt], in data set [1] (in vivo, iv, 0.66 mg/kg), the AUC is 703 ng·h/mL, the Vd was 2.06 L/kg, the clearance worked out at 15.6 mL/min/kg and the half-life is 3.3 h.
`CCN1[C@@H]2CC[C@H]1C[C@H](S(=O)(=O)NC(=O)Nc1c3c(cc4c1CCC4)CCC3)C2` [Example 70, N-((1,2,3,5,6,7-Hexahydro-s-indacen-4-yl)carbamoyl)-8-ethyl-8-azabicyclo[3.2.1]octane-3-sulfonamide exo isomers, potassium salt]: in data set [1] (in vivo, iv, 1.86 mg/kg), the AUC turned out to be 2550 ng·h/mL, the Vd was determined as 0.53 L/kg, the clearance was 12.1 mL/min/kg and the half-life was 1.7 h.
Consider `O=C(Nc1c2c(cc3c1CCC3)CCC2)NS(=O)(=O)C1CN(Cc2ccccc2)C1` [Example 72, 1-Benzyl-N-((1,2,3,5,6,7-hexahydro-s-indacen-4-yl)carbamoyl) azetidine-3-sulfonamide, potassium salt], for which, at NLRP3 [2], the IC50 was 1000 to 10000 nM.
Regarding `O=C(Nc1c2c(cc3c1CCC3)CCC2)NS(=O)(=O)C1CN(C2CCCC2)C1` [Example 99, 1-Cyclopentyl-N-((1,2,3,5,6,7-hexahydro-s-indacen-4-yl)carbamoyl)azetidine-3-sulfonamide, potassium salt], the AUC in data set [1] (setting [4]) was 1670 ng·h/mL. The clearance in data set [1] (setting [5]) is 10 mL/min/kg. In addition, in data set [1] (setting [6]), the half-life is 0.6 h. Besides, in data set [1] (setting [7]), the Vd amounted to 0.42 L/kg.
As to `COc1cc(-c2ccc3c(c2NC(=O)NS(=O)(=O)c2cn(C(C)C)c(=O)cn2)CCC3)ccn1` [Example 156, 4-Isopropyl-N-((5-(2-methoxypyridin-4-yl)-2,3-dihydro-11H-inden-4-yl)carbamoyl)-S-oxo-4,5-dihydropyrazine-2-sulfonamide], in data set [1] (setting [4]), the AUC is 1520 ng·h/mL. The clearance in data set [1] (setting [5]) is 11 mL/min/kg. In addition, the half-life in data set [1] (setting [6]) is 1 h. For the same molecule, the Vd in data set [1] (setting [7]) was 0.31 L/kg.
As to `CC(C)c1cc(F)cc(-c2ccnc(C#N)c2)c1NC(=O)NS(=O)(=O)C1CN(C2CCC2)C1` [Example 161, N-((2-(2-Cyanopyridin-4-yl)-4-fluoro-6-isopropylphenyl)carbamoyl)-1-cyclobutylazetidine-3-sulfonamide], at NLRP3 [3], the half-inhibitory concentration (IC50) was in the range of 1000 to 10000 nM.
Consider `CCN1CC(S(=O)(=O)NC(=O)Nc2c(-c3ccnc(C#N)c3)cc(F)cc2C(C)C)C1` [Example 165, N-((2-(2-Cyanopyridin-4-yl)-4-fluoro-6-isopropylphenyl)carbamoyl)-1-ethylazetidine-3-sulfonamide], for which the IC50 on NLRP3 [3] is 1000 to 10000 nM.
Still for that read-out and setting: the figure for `CCN1CC(S(=O)(=O)NC(=O)Nc2c(-c3ccnc(OC)c3)cc(F)cc2C(C)C)C1` [Example 166, 1-Ethyl-N-((4-fluoro-2-isopropyl-6-(2-methoxypyridin-4-yl)phenyl)carbamoyl)azetidine-3-sulfonamide] is 1000 to 10000 nM.
With `CC(C)c1cc(F)cc(-c2ccnc(C#N)c2)c1NC(=O)NS(=O)(=O)C1CN(Cc2cccnc2)C1` [Example 169, N-((2-(2-Cyanopyridin-4-yl)-4-fluoro-6-isopropylphenyl)carbamoyl)-1-(pyridin-3-ylmethyl)azetidine-3-sulfonamide], the IC50 on NLRP3 [3] was 1000 to 10000 nM.
Still for that read-out and setting: the figure for `CC(C)c1cc(F)cc(-c2cccnc2)c1NC(=O)NS(=O)(=O)C1CN(C(C)C)C1` [Example 175, N-((4-Fluoro-2-isopropyl-6-(pyridin-3-yl)phenyl)carbamoyl)-1-isopropylazetidine-3-sulfonamide] is under 1000 nM.
On to `CC(C)c1cc(F)cc(-c2cccnc2)c1NC(=O)NS(=O)(=O)C1CCN(C(C)C)CC1` [Example 176, N-((4-Fluoro-2-isopropyl-6-(pyridin-3-yl)phenyl)carbamoyl)-1-isopropylpiperidine-4-sulfonamide], for which the concentration for half-maximal inhibition (IC50) on NLRP3 [3] was in the range of 1000 to 10000 nM.
On the same count and under the same terms, the figure for `COc1cc(-c2cc(F)cc(C(C)C)c2NC(=O)NS(=O)(=O)C2CN(Cc3cccnc3)C2)ccn1` [Example 177, N-((4-Fluoro-2-isopropyl-6-(2-methoxypyridin-4-yl)phenyl)carbamoyl)-1-(pyridin-3-ylmethyl)azetidine-3-sulfonamide] is 1000 to 10000 nM.
As to `COc1cc(-c2ccc3c(c2NC(=O)NS(=O)(=O)c2ccn(C(C)C)c(=O)c2)CCC3)ccn1` [Example 179, 1-Isopropyl-N-((5-(2-methoxypyridin-4-yl)-2,3-dihydro-1H-inden-4-yl)carbamoyl)-2-oxo-1,2-dihydropyridine-4-sulfonamide, sodium salt], at NLRP3 [3], the IC50 was under 1000 nM.
On the same count and under the same terms, the figure for `CC(C)n1ccc(S(=O)(=O)NC(=O)Nc2c3c(cc4c2CCC4)CCC3)cc1=O` [Example 180, N-((1,2,3,5,6,7-Hexahydro-s-indacen-4-yl)carbamoyl)-1-isopropyl-2-oxo-1,2-dihydropyridine-4-sulfonamide, sodium salt] is 1000 to 10000 nM; for `CC(C)n1cccc(S(=O)(=O)NC(=O)Nc2c3c(cc4c2CCC4)CCC3)c1=O` [Example 182, N-((1,2,3,5,6,7-Hexahydro-s-indacen-4-yl)carbamoyl)-1-isopropyl-2-oxo-1,2-dihydropyridine-3-sulfonamide] it is 1000 to 10000 nM; for `CN(C)CCn1cc(S(=O)(=O)NC(=O)Nc2c3c(cc4c2CCC4)CCC3)ccc1=O` [Example 184, 1-(2-(Dimethylamino)ethyl)-N-((1,2,3,5,6,7-hexahydro-s-indacen-4-yl)carbamoyl)-6-oxo-1,6-dihydropyridine-3-sulfonamide] it is 1000 to 10000 nM.
For the molecule `CCN1CCC(S(=O)(=O)NC(=O)Nc2c(-c3ccnc(OC)c3)ccc3c2CCC3)CC1` [Example 188, 1-Ethyl-N-((5-(2-methoxypyridin-4-yl)-2,3-dihydro-1H-inden-4-yl)carbamoyl)piperidine-4-sulfonamide, potassium salt], the IC50 at NLRP3 [3] was in the range of 1000 to 10000 nM.
`CCN1CCC(S(=O)(=O)NC(=O)Nc2c(-c3ccnc(C#N)c3)ccc3c2CCC3)CC1` [Example 190, N-((5-(2-Cyanopyridin-4-yl)-2,3-dihydro-1H-inden-4-yl)carbamoyl)-1-ethylpiperidine-4-sulfonamide, potassium salt]: at NLRP3 [3], the IC50 is 1000 to 10000 nM.
The same measure, in the same setting: the figure for `CN1CCCC(S(=O)(=O)NC(=O)Nc2c3c(cc4c2CCC4)CCC3)CC1` (stereo not drawn) [Example 195, N-((1,2,3,5,6,7-hexahydro-s-indacen-4-yl)carbamoyl)-1-methylazepane-4-sulfonamide, potassium salt] is under 1000 nM.

Broadly, the AUC is concentration integrated over time. One may read the IC50 as the midpoint of a concentration-inhibition curve.
